Assay results from publication PMC3904487, “The effect of piperine on midazolam plasma concentration in healthy volunteers, a research on the CYP3A-involving metabolism” (DARU Journal of Pharmaceutical Sciences, 2014).
Values joined by “and” are separate entries in the source; they are usually repeats but may differ in a detail not shown here. Identical values can stand only once.

Key:
[1] = Clinical features (sedation, amnesia, side effects) after oral midazolam in placebo and piperine pretreatment groups; assay type: in vivo, human; details: midazolam 10 mg oral; for End of drug effect / duration of sedation / Onset of drug effect (sedative effect of midazolam): n=20, mean (±SD)
[2] = Midazolam plasma concentration (HPLC) and one-compartment PK after placebo or piperine pretreatment in healthy volunteers
From the text: This was a cross-over controlled study on two groups (n=10) of healthy volunteers. A one-month period was considered as wash out time between two trials. […] Inclusion criteria: being healthy; age ranging 18 to 35; normal diet; not receiving microsomal enzyme inhibitor or inducer agents for at least 7 days before the study; not using black pepper for at least 7 days before the study. Exclusion criteria: age being below 18 and above 35; smocking; pregnancy; metabolic disorders; high pepper diet, receiving enzyme inhibitors or inducers.
Healthy volunteers regardless of gender were randomly divided into two control and piperine receiving groups (n=20 per group). The subject received placebo or piperine (1 capsule 15 mg of piperine daily for 3 days before midazolam) and midazolam (10 mg as an oral single dose) on fourth day of the study. […] Blood samples (maximum 10 ml) were taken at 0.5, 2.5 and 5 hour after midazolam administration. After a month as a wash out period, the treatment program was exchanged between placebo and piperine groups and all steps were done as same as the previous.
Blood samples were transferred into labeled tubes containing Ca-EDTA and shake gently to mix Ca-EDTA with blood for preventing of coagulation.The samples were centrifuged at 3500 ×g for 15 min and supernatant plasma layer transferred into a blank tube. Until the assay of midazolam or diazepam concentration, the plasma samples were kept at −20°C.
For measurement of the drugs concentration, plasma samples were removed from the freezer condition and left in the laboratory to convert from frozen into a liquid sample. Then 0.5 ml of thawed plasma sample was transferred into a capped falcon tube. In the next step, 100 micl of 1 M NaOH and 100 micl isoamyl alcohol were added. After a gently shaking, 4.5 ml of n-hexan was added and shake for 1 minute. The final solutions were centrifuged at 300 ×g for 5 min. After this step, 4.2 ml of supernatant was drawn and transferred into a plastic tube and 100 miclof 0.05 M HCl was added to the solution and centrifuged similar as the previous. Then the supernatant (organic layer) was discarded and the remaining was directly injected into the HPLC.
The separation was carried out at ambient temperature using a single-column isocratic reverse-phase method. The mobile phase consisted of 75% methanol and 25% water. Flow rate was set at 0.8 ml/min. The extracts were detected by UV detector at 242 nm wavelength. Twenty micl of the aqueous layer of final extract was injected into the HPLC using a Hamilton’s syringe. The injection was repeated 3 times for each sample. Peaks area and height were considered for midazolam and diazepam detection and used for calculation of the drugs concentration in the final plasma extract.
The second; pharmacokinetic (PK) parameters such as absorption rate constant (Ka), clearance, half-life and volume of distribution of midazolam in the placebo and piperine groups were calculated based on assumed one-compartment kinetics using P-Pharm software.
Based on non-parametric distribution, data of three concentrations by time were analyzed using Friedman test. Wilcoxon U-test was used for the results of clearance, volume of distribution and half-life of midazolam in piperine group compared to placebo. The difference of the PK parameters between two groups was considered statistically significant at p<0.05.

[3] = piperine 15 mg x 3 days pretreatment
[4] = piperine 15 mg x 3 days pretreatment, of n=20
[5] = placebo pretreatment, midazolam 10 mg oral, n=20

SMILES: O=C(/C=C/C=C/c1ccc2c(c1)OCO2)N1CCCCC1 [Piperine, piperine]
- Subjects with severe sedation and dizziness [1, 3]: 55%
- End of drug effect / duration of sedation [1, 3]: 188 (±59) min
- Onset of drug effect (sedative effect of midazolam) [1, 3]: 11.75 (±4.9) min
- End of drug effect / duration of sedation ([1]; piperine 15 mg x 3 days pretreatment, listed as piperine): 188 ± 59 min
- Amnesia (frequency, subjects) [1, 4]: 7
- Sedation (frequency, subjects) [1, 4]: 20
- Amnesia (frequency, subjects) ([1]; piperine 15 mg x 3 days pretreatment, of n=20, listed as piperine): Seven
- Subjects with hiccup when receiving midazolam ([1]; piperine 15 mg x 3 days pretreatment, disappeared during first hours): One

SMILES: Cc1ncc2n1-c1ccc(Cl)cc1C(c1ccccc1F)=NC2 [midazolam]
- Subjects with severe sedation and dizziness ([1]; placebo pretreatment): 30%
- End of drug effect / duration of sedation ([1]; placebo pretreatment): 102±43 min and 102 (±43) min
- Onset of drug effect (sedative effect of midazolam) ([1]; placebo pretreatment): 11.25 (±4.5) min
- Amnesia (frequency, subjects) ([1]; placebo pretreatment, of n=20): 4
- AUC(0-t) ([2]; both, human, plasma, po, 10 mg): 411 ± 235 ng·h/mL
- half-life ([2]; both, human, plasma, po, 10 mg): 1.71 h
- Time of maximum plasma midazolam concentration ([2]; placebo group, after midazolam 10 mg oral, population concentration-time curve): 1.5 h
- Kel, elimination rate constant of midazolam (Max) [2, 5]: 0.42
- Kel, elimination rate constant of midazolam (Min) [2, 5]: 0.390
- Kel, elimination rate constant of midazolam (mean) [2, 5]: 0.41
- T1/2, half-life of midazolam (Max) [2, 5]: 1.78 h
- T1/2, half-life of midazolam (Min) [2, 5]: 97.8 min
- Volume (of distribution) of midazolam (Max) [2, 5]: 93.03
- Volume (of distribution) of midazolam (Min) [2, 5]: 87.63
- Volume (of distribution) of midazolam (mean) [2, 5]: 91.44
